In US20150148311A1, “NON-SYSTEMIC TGR5 AGONISTS” (Ardelyx, Inc., priority 2011, published 2015):

target: T1, human TGR5 (Homo sapiens, UniProt Q8TDU6); assay: Cell-based TGR5 assay, HEK293 cells stably expressing human TGR5, cAMP by HTRF; details: HEK293 cells stably expressing human TGR5, 30 min at 37 C, 0.05 nM to 10 μM, read-out: pEC50 Human TGR5 (converted)
T1 construct: expressed in transfected cells
T1 sequence (Q8TDU6 1-330): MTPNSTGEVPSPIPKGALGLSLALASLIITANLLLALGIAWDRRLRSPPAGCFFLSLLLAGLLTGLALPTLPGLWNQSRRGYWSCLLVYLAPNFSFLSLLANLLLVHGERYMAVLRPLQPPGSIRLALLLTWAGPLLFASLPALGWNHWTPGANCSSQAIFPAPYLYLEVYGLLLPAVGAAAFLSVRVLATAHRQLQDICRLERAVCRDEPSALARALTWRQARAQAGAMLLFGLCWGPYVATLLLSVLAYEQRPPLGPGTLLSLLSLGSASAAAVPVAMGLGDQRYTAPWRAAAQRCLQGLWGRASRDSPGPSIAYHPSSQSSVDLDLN
Protocol: Two primary cell based screens were performed. The first utilized HEK293 cells stably transfected to heterologously express human TGR5. The second screen used the human caecum carcinoma cell line NCI-H716 which endogenously expresses human TGR5. In both assays, cells are treated with candidate TGR5 activators and assessed for the increased intercellular levels of cAMP.
HEK293 cells were transfected with a vector that expresses a gene encoding human TGR5, and a stable cell line was isolated using drug selection following standard techniques. Cells were grown overnight at 37° C./5% CO2 prior to assay.
TGR5-mediated cAMP generation was measured using a homogeneous time resolved fluorescence (HTRF) detection method (Cisbio). Test compounds were dissolved in DMSO to a final concentration of 10 mM. Serial 3-fold dilutions of the stock solution were made in DMSO, and these solutions were diluted 100-fold into Hanks Balanced Salt Solution supplemented with 10 mM HEPES pH 7.4 and 0.5 mM isobutyl methylxanthine (IBMX). Prior to assay, culture medium was replaced with fresh medium, and test compounds diluted in HBSS/HEPES/IBMX were added to the cells and incubated at 37° C. for 30 minutes.
Following incubation with test compounds, cAMP was detected through the successive addition of cAMP labeled with the modified allophyocyanin dye d2 (cAMP-d2) and cryptate-labeled anti-cAMP in lysis buffer, and reading HTRF per the manufacturer's instructions. A standard curve was used to convert the raw HTRF data into [cAMP].

| SMILES | EC50 |
| --- | --- |
| O=C(N1CCN(C2CC2)c2ccccc21)C1(NCc2cc(I)ccc2C(F)(F)F)CC1 [Example 164, (4-cyclopropyl-3,4-dihydroquinoxalin-1(2H)-yl)(1-(5-iodo-2-(trifluoromethyl)benzylamino)cyclopropyl)methanone] | 0.126 to 1 µM |
| O=C(N1CCN(C2CC2)c2ccccc21)C1(NCc2c(Cl)ccc(Cl)c2O)CC1 [Example 168, (4-cyclopropyl-3,4-dihydroquinoxalin-1(2H)-yl)(1-((3,6-dichloro-2-hydroxybenzyl)amino)cyclopropyl)methanone] | 0.126 to 1 µM |
| O=C([C@@H]1CSCN1Cc1c(Cl)ccc(Cl)c1O)N1CCN(C2CC2)c2ccccc21 [Example 170, (R)-(4-cyclopropyl-3,4-dihydroquinoxalin-1(2H)-yl)(3-(3,6-dichloro-2-hydroxybenzyl)thiazolidin-4-yl)methanone] | 0.126 to 1 µM |
| CN(CCCCc1cc(Cl)c(OCC2(C(=O)N3CCN(C4CC4)c4ccccc43)CC2)cc1Cl)C[C@H](O)[C@@H](O)[C@H](O)[C@H](O)CO [Example 171, (4-cyclopropyl-3,4-dihydroquinoxalin-1(2H)-yl)(1-((2,5-dichloro-4-(4-(methyl((2S,3R,4R,5R)-2,3,4,5,6-pentahydroxyhexyl)amino)butyl)phenoxy)methyl)-cyclopropyl)methanone] | 0.126 to 1 µM |
| CN(C[C@H](O)[C@@H](O)[C@H](O)[C@H](O)CO)C(=O)CCCCc1ccc(C(F)(F)F)c(CNC2(C(=O)N3CCN(C4CC4)c4ccccc43)CC2)c1 [Example 172, 5-(3-((1-(4-cyclopropyl-1,2,3,4-tetrahydroquinoxaline-1-carbonyl)cyclopropylamino)methyl)-4-(trifluoromethyl)phenyl)-N-methyl-N-((2S,3R,4R,5R)-2,3,4,5,6-pentahydroxyhexyl)pentanamide] | 1.26 to 50.1 µM |
| O=C([C@@H]1CSCN1Cc1cc(Cl)c(CCCCCNc2nc(N(CCO)CCO)nc(N(CCO)CCO)n2)cc1Cl)N1CCN(C2CC2)c2ccccc21 [Example 173, 2-({4-[bis(2-hydroxyethyl)amino]-6-{[5-(2,5-dichloro-4-{[(4R)-4-[(4-cyclopropyl-1,2,3,4-tetrahydroquinoxalin-1-yl)carbonyl]-1,3-thiazolidin-3-yl]methyl}phenyl)pentyl]amino}-1,3,5-triazin-2-yl}(2-hydroxyethyl)amino)ethan-1-ol] | 0.126 to 1 µM |
| O=C(NC[C@@H](O)[C@H](O)[C@@H](O)[C@@H](O)CO)C(CCCc1cc(Cl)c(CN2CSC[C@H]2C(=O)N2CCN(C3CC3)c3ccccc32)cc1Cl)C(=O)NC[C@@H](O)[C@H](O)[C@@H](O)[C@@H](O)CO [Example 174, 2-(3-(2,5-dichloro-4-(((R)-4-(4-cyclopropyl-1,2,3,4-tetrahydroquinoxaline-1-carbonyl)thiazolidin-3-yl)methyl)phenyl)propyl)-N1,N3-bis((2R,3S,4S,5S)-2,3,4,5,6-pentahydroxyhexyl)malonamide] | 1.26 to 50.1 µM |
| N=C(N)NCCCCCc1cc(Cl)c(CN2CSC[C@H]2C(=O)N2CCN(C3CC3)c3ccccc32)cc1Cl [Example 181, (R)-(3-(4-(5-guanidinylpentyl)-2,5-dichlorobenzyl)thiazolidin-4-yl)(4-cyclopropyl-3,4-dihydroquinoxalin-1(2H)-yl)methanone] | < 0.1 µM |
| O=C(N1CCN(C2CC2)c2ccccc21)C1(NCc2cc(C3CC3)ccc2Cl)CC1 [Example 183, (1-(2-chloro-5-cyclopropylbenzylamino)cyclopropyl)(4-cyclopropyl-3,4-dihydroquinoxalin-1(2H)-yl)methanone] | < 0.1 µM |
| O=C(NCCOCCOCCOCCNC(=O)c1ccc(COc2cc(Cl)c(CN3CSC[C@H]3C(=O)N3CCN(C4CC4)c4ccccc43)cc2Cl)cc1)c1ccc(COc2cc(Cl)c(CN3CSC[C@@H]3C(=O)N3CCN(C4CC4)c4ccccc43)cc2Cl)cc1 [Example 190] | 1.26 to 50.1 µM |
| CN(C[C@H](O)[C@@H](O)[C@H](O)[C@H](O)CO)C(=O)CCCCc1cc(Cl)c(COC2(C(=O)N3CCN(C4CC4)c4ccccc43)CC2)cc1Cl [Example 192] | < 0.1 µM |
| CN(C[C@H](O)[C@@H](O)[C@H](O)[C@H](O)CO)C(=O)c1ccc(COc2cc(Cl)c(CN3CSC[C@H]3C(=O)N3CCN(C4CC4)c4ccccc43)cc2Cl)cc1 [Example 196] | 0.126 to 1 µM |
| O=C(NCCCN(CCCNC(=O)[C@H](O)[C@@H](O)[C@H](O)[C@H](O)CO)C(=O)c1ccc(COc2cc(Cl)c(CN3CSC[C@H]3C(=O)N3CCN(C4CC4)c4ccccc43)cc2Cl)cc1)[C@H](O)[C@@H](O)[C@H](O)[C@H](O)CO [Example 197] | 1.26 to 50.1 µM |
| CN(C)c1nc(NCCCCCc2cc(Cl)c(CN3CSC[C@H]3C(=O)N3CCN(C4CC4)c4ccccc43)cc2Cl)nc(NC(CO)(CO)CO)n1 [Example 200] | 0.126 to 1 µM |
| CN(C[C@H](O)[C@H](O)[C@@H](O)[C@H](O)CO)C(=O)c1ccc(CCc2cc(Cl)c(CN3CSC[C@H]3C(=O)N3CCN(C4CC4)c4ccccc43)cc2Cl)cn1 [Example 201] | 0.126 to 1 µM |
| O=C(NC[C@H](O)[C@@H](O)[C@H](O)[C@H](O)CO)c1ccc(CCc2cc(Cl)c(CN3CSC[C@H]3C(=O)N3CCN(C4CC4)c4ccccc43)cc2Cl)cn1 [Example 202] | 0.126 to 1 µM |
| CN(C[C@H](O)[C@@H](O)[C@H](O)[C@H](O)CO)C(=O)c1ccc(COc2cc(Cl)c(CN3CSC[C@H]3C(=O)N3CCN(C4CC4)c4ccccc43)cc2Cl)o1 [Example 203] | 0.126 to 1 µM |
| CN(C[C@H](O)[C@@H](O)[C@H](O)[C@H](O)CO)C(=O)c1ccc(COc2cc(Cl)c(CN3CSC[C@H]3C(=O)N3CCN(C4CC4)c4ccccc43)cc2Cl)nc1 [Example 205] | 0.126 to 1 µM |

Other lines, results leading:

| EC50 | SMILES |
| --- | --- |
| 0.126 to 1 µM | C[C@@H](NC(=O)[C@@H](C)NC(=O)[C@@H](C)NC(=O)c1ccc(COc2cc(Cl)c(CN3CSC[C@H]3C(=O)N3CCN(C4CC4)c4ccccc43)cc2Cl)cc1)C(=O)O [Example 207] |
| 1.26 to 50.1 µM | O=C(NCCCN(CCCNC(=O)[C@H](O)[C@@H](O)[C@H](O)[C@H](O)CO)C(=O)CCc1cc(Cl)c(CN2CSC[C@H]2C(=O)N2CCN(C3CC3)c3ccccc32)cc1Cl)[C@H](O)[C@@H](O)[C@H](O)[C@H](O)CO [Example 209] |
| 0.126 to 1 µM | O=C(CCCCc1cc(Cl)c(CN2C[S+]([O-])C[C@H]2C(=O)N2CCN(C3CC3)c3ccccc32)cc1Cl)NC[C@H](O)[C@@H](O)[C@H](O)[C@H](O)CO (some centres unmarked) [Example 221] |
| < 0.1 µM | O=C(O)CNC(=O)[C@H](CS)NC(=O)CC[C@H](NC(=O)CCCCc1cc(Cl)c(CN2CSC[C@H]2C(=O)N2CCN(C3CC3)c3ccccc32)cc1Cl)C(=O)O [Example 222] |
| 0.126 to 1 µM | COC(=O)c1cc(NCCCCCc2cc(Cl)c(CN3CSC[C@H]3C(=O)N3CCN(C4CC4)c4ccccc43)cc2Cl)nc(N(C)C[C@H](O)[C@@H](O)[C@H](O)[C@H](O)CO)n1 [Example 223] |
| 0.126 to 1 µM | CN(C[C@H](O)[C@@H](O)[C@H](O)[C@H](O)CO)C(=O)c1cc(NCCCCCc2cc(Cl)c(CN3CSC[C@H]3C(=O)N3CCN(C4CC4)c4ccccc43)cc2Cl)nc(N(C)CCO)n1 [Example 224] |
| < 0.1 µM | CN(CCO)c1nc(NCCCCCc2cc(Cl)c(CN3CSC[C@H]3C(=O)N3CCN(C4CC4)c4ccccc43)cc2Cl)cc(C(=O)NC[C@H](O)[C@@H](O)[C@H](O)[C@H](O)CO)n1 [Example 225] |
| 0.126 to 1 µM | CN(C[C@H](O)[C@@H](O)[C@H](O)[C@H](O)CO)C(=O)c1cccc(OCc2cc(Cl)c(CN3CSC[C@H]3C(=O)N3CCN(C4CC4)c4ccccc43)cc2Cl)c1 [Example 230] |
| 0.126 to 1 µM | CN(C[C@H](O)[C@@H](O)[C@H](O)[C@H](O)CO)C(=O)c1cnc(SCc2cc(Cl)c(CN3CSC[C@H]3C(=O)N3CCN(C4CC4)c4ccccc43)cc2Cl)n1C [Example 231] |
| 1.26 to 50.1 µM | O=C(O)c1cnn(Cc2cc(Cl)c(CN3CSC[C@H]3C(=O)N3CCN(C4CC4)c4ccccc43)cc2Cl)c1 [Example 232] |
| 0.126 to 1 µM | Cn1nc(C(=O)O)cc1OCc1cc(Cl)c(CN2CSC[C@H]2C(=O)N2CCN(C3CC3)c3ccccc32)cc1Cl [Example 233] |
| < 0.1 µM | O=C(NC[C@H](O)[C@@H](O)[C@H](O)[C@H](O)CO)c1cnn(Cc2cc(Cl)c(CN3CSC[C@H]3C(=O)N3CCN(C4CC4)c4ccccc43)cc2Cl)c1 [Example 234] |

same assay, conditions: pEC50 Human TGR5, HEK293 cells stably expressing human TGR5, 30 min at 37 C, 0.05 nM to 10 μM

| EC50 | SMILES |
| --- | --- |
| 0.126 to 1 µM | O=C(NCCCN(CCCNC(=O)[C@H](O)[C@@H](O)[C@H](O)[C@H](O)CO)C(=O)NCCCCOc1cc(Cl)c(CN2CSC[C@H]2C(=O)N2CCN(C3CC3)c3ccccc32)cc1Cl)[C@H](O)[C@@H](O)[C@H](O)[C@H](O)CO [Example 195] |
| 0.126 to 1 µM | O=C(O)CN(C[C@H](O)[C@@H](O)[C@H](O)[C@H](O)CO)C(=O)CCCCc1cc(Cl)c(CN2CSC[C@H]2C(=O)N2CCN(C3CC3)c3ccccc32)cc1Cl [Example 226] |
